Assay results taken from ChEMBL document CHEMBL4152349, “A Fragment-Derived Clinical Candidate for Antagonism of X-Linked and Cellular Inhibitor of Apoptosis Proteins: 1-(6-[(4-Fluorophenyl)methyl]-5-(hydroxymethyl)-3,3-dimethyl-1 H,2 H,3 H-pyrrolo[3,2- b]pyridin-1-yl)-2-[(2 R,5 …” (J Med Chem, 2018).

What was measured:
[1] = Chromatographic hydrophobicity index, log D of the compound at pH 7.4 by HPLC method; type: physicochemical; details: buffer
[2] = test system: MDA-MB-231; assay: cells; details: Homo sapiens, MDA-MB-231, 72 h
[3] = molecular target: hERG (KCNH2) (Homo sapiens, UniProt Q12809); assay: in vitro; details: CHO-K1 cells expressing human ERG
hERG (KCNH2), sequence (Q12809 whole entry): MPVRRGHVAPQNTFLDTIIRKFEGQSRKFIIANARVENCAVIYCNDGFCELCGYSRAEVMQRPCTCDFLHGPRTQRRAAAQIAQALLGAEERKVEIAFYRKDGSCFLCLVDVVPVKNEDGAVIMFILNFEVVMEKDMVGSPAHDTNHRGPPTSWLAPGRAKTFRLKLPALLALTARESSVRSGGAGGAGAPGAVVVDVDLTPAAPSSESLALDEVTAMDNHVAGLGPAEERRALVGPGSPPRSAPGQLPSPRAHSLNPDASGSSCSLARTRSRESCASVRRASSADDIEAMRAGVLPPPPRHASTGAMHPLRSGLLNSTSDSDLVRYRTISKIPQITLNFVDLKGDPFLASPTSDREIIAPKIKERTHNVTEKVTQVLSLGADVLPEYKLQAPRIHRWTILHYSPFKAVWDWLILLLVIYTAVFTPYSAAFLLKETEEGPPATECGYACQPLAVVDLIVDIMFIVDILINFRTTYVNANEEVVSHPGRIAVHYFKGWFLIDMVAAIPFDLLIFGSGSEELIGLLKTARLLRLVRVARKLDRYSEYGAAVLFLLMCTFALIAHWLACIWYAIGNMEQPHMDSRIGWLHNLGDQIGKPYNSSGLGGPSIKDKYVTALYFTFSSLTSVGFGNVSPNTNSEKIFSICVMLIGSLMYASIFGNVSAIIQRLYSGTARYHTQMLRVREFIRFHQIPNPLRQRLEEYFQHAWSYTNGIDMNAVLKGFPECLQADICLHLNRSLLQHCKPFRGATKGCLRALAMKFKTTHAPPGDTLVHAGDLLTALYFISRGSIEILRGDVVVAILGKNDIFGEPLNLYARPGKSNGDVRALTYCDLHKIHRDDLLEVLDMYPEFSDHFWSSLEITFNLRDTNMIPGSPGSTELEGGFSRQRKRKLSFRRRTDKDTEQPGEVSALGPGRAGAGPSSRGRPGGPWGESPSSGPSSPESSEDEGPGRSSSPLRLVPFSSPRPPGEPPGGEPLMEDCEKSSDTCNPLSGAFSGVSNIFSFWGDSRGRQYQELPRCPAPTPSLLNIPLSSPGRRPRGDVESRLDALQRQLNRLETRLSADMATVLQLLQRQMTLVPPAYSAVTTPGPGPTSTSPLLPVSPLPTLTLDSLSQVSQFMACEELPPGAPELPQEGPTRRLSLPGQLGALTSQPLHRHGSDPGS

[4] = molecular target: CYP3A4 (Homo sapiens, UniProt P08684); assay: in vitro; details: human CYP3A4 supersomes
CYP3A4, sequence (P08684 whole entry): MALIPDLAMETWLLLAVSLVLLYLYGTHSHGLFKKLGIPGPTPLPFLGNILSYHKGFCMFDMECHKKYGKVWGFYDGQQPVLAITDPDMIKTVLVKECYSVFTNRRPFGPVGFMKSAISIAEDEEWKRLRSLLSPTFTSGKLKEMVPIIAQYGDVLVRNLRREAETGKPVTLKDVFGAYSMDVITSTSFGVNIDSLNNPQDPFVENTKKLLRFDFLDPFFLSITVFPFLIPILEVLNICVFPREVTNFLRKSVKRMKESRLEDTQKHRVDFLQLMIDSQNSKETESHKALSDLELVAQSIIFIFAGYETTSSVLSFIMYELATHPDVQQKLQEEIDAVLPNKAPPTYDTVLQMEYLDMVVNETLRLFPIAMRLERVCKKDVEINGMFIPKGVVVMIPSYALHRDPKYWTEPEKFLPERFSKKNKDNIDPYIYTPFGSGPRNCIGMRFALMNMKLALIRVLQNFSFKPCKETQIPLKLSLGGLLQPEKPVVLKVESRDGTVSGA

[5] = Oral bioavailability in Balb/c mouse at 10 mg/kg by UHPLC and ESI mass spectrometry; type: ADME, organism-based; details: in vivo
[6] = in vivo; details: cynomolgus monkey, po, 5 mg/kg
[7] = Cmax in cynomolgus monkey at 5 mg/kg, po by UHPLC and ESI mass spectrometry; type: ADME, organism-based, Macaca fascicularis; design: dose 5 mg/kg, route oral; details: in vivo
[8] = Plasma clearance in Balb/c mouse at 5 mg/kg, iv or 10 mg/kg, po by UHPLC and ESI mass spectrometry; type: ADME, organism-based
[9] = Plasma clearance in Sprague-Dawley rat at 5 mg/kg, iv or 10 mg/kg, po by UHPLC and ESI mass spectrometry; type: ADME, organism-based
[10] = Volume of distribution at steady state in Balb/c mouse at 5 mg/kg, iv or 10 mg/kg, po by UHPLC and ESI mass spectrometry; type: ADME, organism-based; details: in vivo, read-out: Vdss
[11] = Volume of distribution at steady state in Sprague-Dawley rat at 5 mg/kg, iv or 10 mg/kg, po by UHPLC and ESI mass spectrometry; type: ADME, organism-based; details: in vivo, read-out: Vdss
[12] = Cmax in Balb/c mouse at 10 mg/kg, po by UHPLC and ESI mass spectrometry; type: ADME, organism-based; design: dose 10 mg/kg, route oral; details: in vivo
[13] = Cmax in Sprague-Dawley rat at 10 mg/kg, po by UHPLC and ESI mass spectrometry; type: ADME, organism-based; design: dose 10 mg/kg, route oral; details: in vivo
[14] = Oral bioavailability in Sprague-Dawley rat at 10 mg/kg by UHPLC and ESI mass spectrometry; type: ADME, organism-based; details: in vivo
[15] = test system: Cynomolgus monkey; assay: Cardiotoxicity in cynomolgus monkey assessed as effect on QT interval at 100 mg/kg, po administered as single dose; type: toxicity, organism-based, Macaca fascicularis; details: in vivo
[16] = in vivo; details: cynomolgus monkey, plasma, iv, 1 mg/kg
[17] = in vivo; details: cynomolgus monkey, iv, 1 mg/kg
[18] = in vivo; details: cynomolgus monkey, po, 60 mg/kg
[19] = Drug level in CD-1 mouse hepatocytes treated with 1-(6-(4-fluorobenzyl)-3,3-dimethyl-2,3-dihydro-1H-pyrrolo[3,2-b]pyridin-1-yl)-2-((2R,5R)-5-methyl-2-(((R)-3-methylmorpholino)methyl)piperazin-1-yl)ethanone at 10 uM up to 90 mins by LC-MS analysis; type: ADME, cell-based, Hepatocyte
[20] = Drug level in human hepatocytes treated with 1-(6-(4-fluorobenzyl)-3,3-dimethyl-2,3-dihydro-1H-pyrrolo[3,2-b]pyridin-1-yl)-2-((2R,5R)-5-methyl-2-(((R)-3-methylmorpholino)methyl)piperazin-1-yl)ethanone at 10 uM up to 90 mins by LC-MS analysis; type: ADME, cell-based, Hepatocyte
[21] = Drug level in cynomolgus monkey hepatocytes treated with 1-(6-(4-fluorobenzyl)-3,3-dimethyl-2,3-dihydro-1H-pyrrolo[3,2-b]pyridin-1-yl)-2-((2R,5R)-5-methyl-2-(((R)-3-methylmorpholino)methyl)piperazin-1-yl)ethanone at 10 uM up to 90 mins by LC-MS analysis; type: ADME, cell-based, Macaca fascicularis, Hepatocyte
[22] = Plasma clearance in Sprague-Dawley rat at 1 mg/kg, iv or 5 mg/kg, po by UHPLC and ESI mass spectrometry; type: ADME, organism-based
[23] = Volume of distribution at steady state in Sprague-Dawley rat at 1 mg/kg, iv or 5 mg/kg, po by UHPLC and ESI mass spectrometry; type: ADME, organism-based; details: in vivo, read-out: Vdss
[24] = Cmax in Sprague-Dawley rat at 5 mg/kg, po by UHPLC and ESI mass spectrometry; type: ADME, organism-based; design: dose 5 mg/kg, route oral; details: in vivo
[25] = Oral bioavailability in Sprague-Dawley rat at 5 mg/kg by UHPLC and ESI mass spectrometry; type: ADME, organism-based; details: in vivo
[26] = test system: Cynomolgus monkey; assay: Plasma clearance in cynomolgus monkey at 1 mg/kg, iv or 5 mg/kg, po relative to liver blood flow; type: ADME, organism-based, Macaca fascicularis; details: in vivo
[27] = Permeability in human Caco2 cells at 10 uM after 1 hr; type: ADME, cell-based; details: Caco-2, read-out: permeability
[28] = Stability in cynomolgus monkey liver microsomes at 10 uM up to 90 mins in presence of NADPH by LC/MS analysis; type: ADME, Macaca fascicularis, microsome
[29] = Drug metabolism in Sprague-Dawley rat hepatocytes assessed as 1-(6-(4-fluorobenzyl)-3,3-dimethyl-2,3-dihydro-1H-pyrrolo[3,2-b]pyridin-1-yl)-2-((2S,5R)-2-((2-hydroxyethylamino)methyl)-5-methylpiperazin-1-yl)ethanone formation at 10 uM up to 90 mins by LC-MS analysis; type: ADME, cell-based, Hepatocyte
[30] = Drug metabolism in Sprague-Dawley rat hepatocytes assessed as 2-((2S,5R)-2-(aminomethyl)-5-methylpiperazin-1-yl)-1-(6-(4-fluorobenzyl)-3,3-dimethyl-2,3-dihydro-1H-pyrrolo[3,2-b]pyridin-1-yl)ethanone formation at 10 uM up to 90 mins by LC-MS analysis; type: ADME, cell-based, Hepatocyte
[31] = Drug metabolism in Sprague-Dawley rat hepatocytes assessed as 2-((R)-1-amino-3-((R)-3-methylmorpholino)propan-2-ylamino)-1-(6-(4-fluorobenzyl)-3,3-dimethyl-2,3-dihydro-1H-pyrrolo[3,2-b]pyridin-1-yl)ethanone formation at 10 uM up to 90 mins by LC-MS analysis; type: ADME, cell-based, Hepatocyte
[32] = Drug metabolism in CD-1 mouse hepatocytes assessed as oxidation metabolite formation at 10 uM up to 90 mins by LC-MS analysis; type: ADME, cell-based, Hepatocyte
[33] = Drug metabolism in human hepatocytes assessed as oxidation metabolite formation at 10 uM up to 90 mins by LC-MS analysis; type: ADME, cell-based, Hepatocyte
[34] = Drug metabolism in Sprague-Dawley rat hepatocytes assessed as oxidation metabolite formation at 10 uM up to 90 mins by LC-MS analysis; type: ADME, cell-based, Hepatocyte
[35] = Drug metabolism in cynomolgus monkey hepatocytes assessed as oxidation metabolite formation at 10 uM up to 90 mins by LC-MS analysis; type: ADME, cell-based, Macaca fascicularis, Hepatocyte
[36] = Oral bioavailability in Balb/c mouse at 5 mg/kg by UHPLC and ESI mass spectrometry; type: ADME, organism-based; details: in vivo

C[C@@H]1CN(CC(=O)N2CC(C)(C)c3nc(CO)c(Cc4ccc(F)cc4)cc32)[C@@H](CN2[C@H](C)COC[C@H]2C)CN1
chromatographic logD [1]: 3.5

C[C@@H]1CN(CC(=O)N2CC(C)(C)c3nnc(Cc4ccc(F)cc4F)cc32)[C@@H](CN2Cc3cc(C#N)ccc3C2=O)CN1
chromatographic logD [1]: 3
IC50 [2]: 5.2 nM
inhibition at 10 min, 30 µM [3]: 19%
half-life at 40 min, 1 µM [4]: 42 min

C[C@@H]1CN(CC(=O)N2CC(C)(C)c3[nH]c(=O)c(Cc4ccc(F)cc4)cc32)[C@@H](CN2[C@H](C)COC[C@H]2C)CN1
chromatographic logD [1]: 2.7

C[C@@H]1CN(CC(=O)N2CC(C)(C)c3ncc([C@H](O)c4ccc(F)cc4)cc32)[C@@H](CN2[C@H](C)COC[C@H]2C)CN1
bioavailability [5]: 31%
bioavailability [6]: 13%

C[C@@H]1CN(CC(=O)N2CC(C)(C)c3nc(CO)c(Cc4ccc(F)cc4)cc32)[C@@H](CN2CCOC[C@H]2C)CN1 [ASTX-660]
Cmax [7]: 137 ng/mL
chromatographic logD [1]: 3.1
bioavailability [5]: 34%
clearance [8]: 41 mL/min/kg
clearance [9]: 38 mL/min/kg
Vd [10]: 2.7 L/kg
Vd [11]: 9.3 L/kg
Cmax [12]: 433 ng/mL
Cmax [13]: 117 ng/mL
bioavailability [14]: 29%
Activity [15]: Non-Toxic
bioavailability [6]: 12%
clearance [16]: 16 mL/min/kg
Vd [17]: 6 L/kg
bioavailability [18]: 50%

C[C@@H]1CN(CC(=O)N2CC(C)(C)c3ncc(Cc4ccc(F)cc4)cc32)[C@@H](CNCCO)CN1
Drug uptake [19]: Active
Drug uptake [20]: Active
Drug uptake [21]: Active

C[C@@H]1CN(CC(=O)N2CC(C)(C)c3ncc(Cc4ccc(F)cc4)cc32)[C@@H](CN2CCOC[C@H]2C)CN1
clearance [22]: 26 mL/min/kg
Vd [23]: 12 L/kg
Cmax [24]: 47 ng/mL
Cmax [7]: 22 ng/mL
bioavailability [25]: 24%
CL [26]: < 50%
Papp at 1 h, 10 µM [27]: 1.1 ×10⁻⁶ cm/s
Stability [28]: Stable
Drug metabolism [29]: Metabolite_Notdetected
Drug metabolism [30]: Metabolite_Notdetected
Drug metabolism [31]: Metabolite_Notdetected
Drug metabolism [32]: Metabolite_Detected
Drug metabolism [33]: Metabolite_Detected
Drug metabolism [34]: Metabolite_Notdetected
Drug metabolism [35]: Metabolite_Detected
bioavailability [6]: 2%
clearance [16]: 17 mL/min/kg
Vd [17]: 3.7 L/kg

C[C@@H]1CN(CC(=O)N2CC(C)(C)c3nnc(Cc4ccc(F)cc4F)cc32)[C@@H](CN2Cc3ccccc3C2=O)CN1
bioavailability [36]: 3%
chromatographic logD [1]: 2.4
bioavailability [5]: 2%
IC50 [2]: 5.4 nM
bioavailability [6]: 18%
inhibition at 10 min, 30 µM [3]: 27%
half-life at 40 min, 1 µM [4]: > 70 min

C[C@@H]1CN(CC(=O)N2CC(C)(C)c3ncc([C@@H](O)c4ccc(F)cc4)cc32)[C@@H](CN2[C@H](C)COC[C@H]2C)CN1
chromatographic logD [1]: 2.9
bioavailability [5]: 31%
bioavailability [6]: 13%

C[C@@H]1CN(CC(=O)N2CC(C)(C)c3nnc(Cc4ccc(F)cc4F)cc32)[C@@H](CN2Cc3ccc(F)cc3C2=O)CN1
chromatographic logD [1]: 3.1
IC50 [2]: 2.9 nM
inhibition at 10 min, 30 µM [3]: 18%
half-life at 40 min, 1 µM [4]: 41 min

C[C@@H]1CN(CC(=O)N2CC(C)(C)c3nnc(Cc4ccc(F)cc4F)cc32)[C@@H](CN2Cc3c(F)cccc3C2=O)CN1
chromatographic logD [1]: 2.7
IC50 [2]: 0.59 nM
inhibition at 10 min, 30 µM [3]: 28%
half-life at 40 min, 1 µM [4]: > 70 min
